Measured values: patent US20260327211A1, “MODULATORS OF A POTASSIUM CHANNEL AND OF TRPV1 CHANNEL AND USES THEREOF” (Bsense Bio Therapeutics Ltd., priority 2023, published 2026)
pIC50: −log10 of the molar value.

How the values were obtained:
[1] = system: Post-operative Pain (POP) rats; assay: Post-operative Pain model, thermal; type: in vivo, rat; conditions: 100 mg/kg, 6 hours post-dose
Method: All animal experiments were carried out according to the Guide for the Care and Use of Laboratory Animals (2011 edition) and approved by the Israel National Institutional Animal Care and Use Committee (IACUC). Young adult male SD rats (Envigo RMS, Israel), were used for in vivo efficacy: Spared Nerve Injury (SNI), Distal Tibial Injury (DTI) and Post-operative Pain (POP), 200-220 grams, Chronic Post-Ischemia Pain (CPIP) 275-325 grams, Monosodium iodoacetate-induced osteoarthritis (MIA-OA) 180-220 grams; for in vivo safety: 200-250 grams at study initiation. […] The health status of the animals used in this study was examined upon their arrival. Only animals in good health were acclimatized to laboratory conditions and were used in the studies. All studies were performed following at least five days of animal acclimation. […] Water was monitored periodically. […]
Post-operative Pain (POP): For this model, animals were anesthetized by medetomidine/ketamine sodium IP. […] On the following day, animal responses to von Frey (VF) filaments and hot-plate testing were recorded.
Hot Plate: Animals were placed on hot plate analgesia meter (IITC Life Science Inc., CA, USA) set to 53±1° C., and the time until the first escape response was observed was recorded. […]

Bradykynin B1-2 = assay: Functional screening panel, Bradykynin B1-2; type: biochemical; conditions: up to 10 micromolar
Method: (§1) A broad panel of 78 recombinant targets was tested for pharmacologic activity in vitro through a variety of functional assays (Eurofins DiscoverX, USA), as part of the National Institute of Neurological Disorders and Stroke (NINDS) Preclinical Screening Platform for Pain (PSPP) program. The biological targets for the in vitro profiling have been selected based on avoiding opioid receptor stimulation and targets known to be associated with adverse events or targeted by drugs of abuse. […] For each test, a reference compound was evaluated at the target of interest as a positive control.

nAChR(a4/b2) = target: T1, nAChR(a4/b2) (Homo sapiens, UniProt P17787+P43681); assay: Functional selectivity panel, nAChR(a4/b2); type: biochemical; conditions: up to 10 micromolar
T1 construct: Eurofins DiscoverX functional panel cells
Method: as §1

rats = assay: Chronic 5-day BID exposure; type: in vivo, rat; conditions: up to 300 mg/kg BID, oral
Vasopressin 1-2 = assay: Functional screening panel, Vasopressin 1-2; type: biochemical; conditions: up to 10 micromolar
Method: as §1

hTRPV1 = hTRPV1 dual activity electrophysiology, CHO cells co-expressing hKv7.2/3 and hTRPV1; type: cell-based; conditions: rat DRG and dual CHO

T1 sequence (P43681 27-627): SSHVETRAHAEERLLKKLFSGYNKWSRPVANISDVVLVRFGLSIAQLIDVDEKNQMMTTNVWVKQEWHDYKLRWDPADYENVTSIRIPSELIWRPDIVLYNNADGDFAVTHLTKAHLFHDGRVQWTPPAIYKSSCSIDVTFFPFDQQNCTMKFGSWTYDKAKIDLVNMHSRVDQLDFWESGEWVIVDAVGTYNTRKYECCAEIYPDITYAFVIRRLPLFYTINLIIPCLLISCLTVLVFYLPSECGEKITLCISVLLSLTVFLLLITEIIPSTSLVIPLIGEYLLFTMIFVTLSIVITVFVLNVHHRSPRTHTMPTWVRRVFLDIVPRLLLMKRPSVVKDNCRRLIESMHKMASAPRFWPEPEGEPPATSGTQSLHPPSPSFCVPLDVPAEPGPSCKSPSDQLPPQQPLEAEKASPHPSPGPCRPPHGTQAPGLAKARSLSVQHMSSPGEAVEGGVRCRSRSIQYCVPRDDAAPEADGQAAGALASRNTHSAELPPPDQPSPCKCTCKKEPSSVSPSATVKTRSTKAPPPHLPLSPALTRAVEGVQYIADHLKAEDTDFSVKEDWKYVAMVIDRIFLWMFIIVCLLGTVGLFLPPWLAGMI
T1 sequence (P17787 26-502): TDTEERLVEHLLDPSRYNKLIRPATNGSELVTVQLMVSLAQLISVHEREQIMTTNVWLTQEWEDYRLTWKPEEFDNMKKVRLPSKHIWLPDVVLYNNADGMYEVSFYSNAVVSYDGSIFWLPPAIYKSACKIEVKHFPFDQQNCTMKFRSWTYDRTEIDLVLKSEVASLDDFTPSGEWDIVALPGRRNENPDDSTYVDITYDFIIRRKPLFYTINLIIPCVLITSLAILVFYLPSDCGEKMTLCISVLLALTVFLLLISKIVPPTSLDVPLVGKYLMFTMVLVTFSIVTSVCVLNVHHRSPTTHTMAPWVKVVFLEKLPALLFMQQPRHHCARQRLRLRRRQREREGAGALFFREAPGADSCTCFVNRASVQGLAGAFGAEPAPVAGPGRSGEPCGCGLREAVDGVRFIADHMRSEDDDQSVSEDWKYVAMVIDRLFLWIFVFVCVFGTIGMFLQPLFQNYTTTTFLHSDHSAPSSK

| SMILES | Thermal withdrawal latency [1] | Effect on Bradykynin B1-2 (Bradykynin B1-2) | Effect on nAChR(a4/b2) (nAChR(a4/b2)) | Gross safety, 5-day BID (rats) | Effect on Vasopressin 1-2 (Vasopressin 1-2) | pIC50 (hTRPV1) |
| --- | --- | --- | --- | --- | --- | --- |
| O=C(Cc1cncc(-n2cc(Cl)c3cc(Cl)cc(Cl)c32)c1)N[C@@H]1COC[C@H]1O [Compound 661] | completely reversed |  |  |  |  |  |
| O=C(Cc1nccc(-n2cc(Cl)c3cc(Cl)cc(Cl)c32)n1)NC1COCC1O (stereo not drawn) [Compound 760] |  | no effect | no effect | did not raise any gross safety concerns | no effect | 9.64 to 10.00 |
